Laboratory results as given in patent US20140142055A1, “METHODS OF TREATING RECURRENT MEIBOMIAN GLANDS DISORDER AND THEREBY DECREASING THE FREQUENCY OF RECURRENCE” (INSITE VISION CORPORATION, priority 2011, published 2014).

Assay: Release of fluorometholone from the gelled aqueous polymer suspension in the rabbit eye, measured in the aqueous humor
Assay type: in vivo
Conditions: topical sustained-release aqueous suspension of lightly cross-linked carboxyl-containing polymer
Procedure: The viscous gels that result from fluid eye drops delivered by means of the aqueous suspensions have residence times in the eye ranging from about 2 to about 12 hours, e.g., from about 3 to about 6 hours. The active ingredients contained in these ophthalmically acceptable vehicles can be released from the gels at rates that depend on such factors as the active ingredient itself and its physical form, the extent of drug loading and the pH of the system, as well as on any drug delivery adjuvants, such as ion exchange resins compatible with the ocular surface, which can also be present.

release rates in the rabbit eye, as measured by fluorometholone contained in the aqueous humor: in excess of four hours
Compound: CC(=O)[C@@]1(O)CC[C@H]2[C@@H]3C[C@H](C)C4=CC(=O)C=C[C@]4(C)[C@@]3(F)[C@@H](O)C[C@@]21C [fluorometholone]
